The values that follow are results of earlier work, collected in patent US7329495B2 (Board of Regents, the University of Texas System, priority 2004, dated 2008).

For this data set, the target named is KIT protein (c-KIT K642E) (Homo sapiens, UniProt P10721, K642E). Conditions: human GIST cell line, homozygous exon 13 c-KIT K642E.
Sequence of KIT protein (c-KIT K642E) (P10721 26-976 K642E): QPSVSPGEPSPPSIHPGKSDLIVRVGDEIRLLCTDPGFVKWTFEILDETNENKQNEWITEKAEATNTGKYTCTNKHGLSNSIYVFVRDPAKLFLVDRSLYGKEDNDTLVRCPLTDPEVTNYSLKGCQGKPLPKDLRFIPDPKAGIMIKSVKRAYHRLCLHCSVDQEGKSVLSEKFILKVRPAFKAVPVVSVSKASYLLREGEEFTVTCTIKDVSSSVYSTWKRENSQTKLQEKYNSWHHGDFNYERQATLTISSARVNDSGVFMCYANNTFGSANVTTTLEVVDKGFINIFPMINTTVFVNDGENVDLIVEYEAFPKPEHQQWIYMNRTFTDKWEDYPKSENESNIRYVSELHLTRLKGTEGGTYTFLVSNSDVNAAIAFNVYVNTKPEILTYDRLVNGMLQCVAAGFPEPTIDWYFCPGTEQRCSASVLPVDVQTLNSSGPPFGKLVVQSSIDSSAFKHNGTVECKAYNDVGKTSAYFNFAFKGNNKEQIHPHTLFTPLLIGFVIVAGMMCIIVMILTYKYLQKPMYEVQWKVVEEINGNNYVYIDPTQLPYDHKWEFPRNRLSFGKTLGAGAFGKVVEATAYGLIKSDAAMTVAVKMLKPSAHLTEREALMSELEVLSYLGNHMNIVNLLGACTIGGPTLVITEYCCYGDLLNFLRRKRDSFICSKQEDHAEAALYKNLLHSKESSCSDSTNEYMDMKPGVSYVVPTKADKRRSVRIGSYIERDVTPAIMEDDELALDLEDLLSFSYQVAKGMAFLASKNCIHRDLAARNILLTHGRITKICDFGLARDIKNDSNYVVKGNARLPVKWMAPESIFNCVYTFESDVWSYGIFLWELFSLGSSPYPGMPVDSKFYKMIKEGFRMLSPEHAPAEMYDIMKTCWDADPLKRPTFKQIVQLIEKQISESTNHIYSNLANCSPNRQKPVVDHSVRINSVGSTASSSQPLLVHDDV

On to `Cc1ccc(NC(=O)c2ccc(CN3CCN(C)CC3)cc2)cc1Nc1nccc(-c2cccnc2)n1` [imatinib], for which the “constitutive KIT tyrosine phosphorylation after introducing STI571 to the cells” value is on record as “abolished”.
